Source: PubChem BioAssay (NCI)
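Cultured in 96-well plates, cells were exposed to test compound for 48 hours across five concentrations. TGI: total growth inhibition.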

How the values were obtained:
Experiment in all cases: NCI tumour cell line growth inhibition, 48 h
A498 renal = test system: A498 renal
A549 NSCLC = test system: A549 NSCLC
CAKI-1 renal = test system: CAKI-1 renal
CCRF-CEM leukemia = test system: CCRF-CEM leukemia
COLO 205 colon = test system: COLO 205 colon
DLD-1 colon = test system: DLD-1 colon
DMS 114 small cell lung = test system: DMS 114 small cell lung
DMS 273 small cell lung = test system: DMS 273 small cell lung
EKVX NSCLC = test system: EKVX NSCLC
HCC-2998 colon = test system: HCC-2998 colon
HCT-116 colon = test system: HCT-116 colon
HCT-15 colon = test system: HCT-15 colon
HL-60(TB) leukemia = test system: HL-60(TB) leukemia
HOP-18 NSCLC = test system: HOP-18 NSCLC
HOP-62 NSCLC = test system: HOP-62 NSCLC
HOP-92 NSCLC = test system: HOP-92 NSCLC
HT29 colon = test system: HT29 colon
IGROV1 ovarian = test system: IGROV1 ovarian
K-562 leukemia = test system: K-562 leukemia
KM12 colon = test system: KM12 colon
KM20L2 colon = test system: KM20L2 colon
LOX IMVI melanoma = test system: LOX IMVI melanoma
M19-MEL melanoma = test system: M19-MEL melanoma
MALME-3M melanoma = test system: MALME-3M melanoma
MCF7 breast = test system: MCF7 breast
MOLT-4 leukemia = test system: MOLT-4 leukemia
NCI-H226 lung = test system: NCI-H226 lung
NCI-H23 lung = test system: NCI-H23 lung
NCI-H460 lung = test system: NCI-H460 lung
NCI-H522 lung = test system: NCI-H522 lung
NCI/ADR-RES ovarian = test system: NCI/ADR-RES ovarian
OVCAR-3 ovarian = test system: OVCAR-3 ovarian
OVCAR-4 ovarian = test system: OVCAR-4 ovarian
OVCAR-5 ovarian = test system: OVCAR-5 ovarian
OVCAR-8 ovarian = test system: OVCAR-8 ovarian
P388 leukemia = test system: P388 leukemia
P388/ADR leukemia = test system: P388/ADR leukemia
RPMI-8226 leukemia = test system: RPMI-8226 leukemia
RXF 393 renal = test system: RXF 393 renal
SF-268 CNS = test system: SF-268 CNS
SF-295 CNS = test system: SF-295 CNS
SF-539 CNS = test system: SF-539 CNS
SK-MEL-2 melanoma = test system: SK-MEL-2 melanoma
SK-MEL-28 melanoma = test system: SK-MEL-28 melanoma
SK-MEL-5 melanoma = test system: SK-MEL-5 melanoma
SK-OV-3 ovarian = test system: SK-OV-3 ovarian
SN12C renal = test system: SN12C renal
SN12K1 renal = test system: SN12K1 renal
SNB-19 CNS = test system: SNB-19 CNS
SNB-75 CNS = test system: SNB-75 CNS
SNB-78 CNS = test system: SNB-78 CNS
SW-620 colon = test system: SW-620 colon
U251 CNS = test system: U251 CNS
UACC-257 melanoma = test system: UACC-257 melanoma
UACC-62 melanoma = test system: UACC-62 melanoma
UO-31 renal = test system: UO-31 renal
XF 498 CNS = test system: XF 498 CNS
786-0 renal = test system: 786-0 renal
ACHN renal = test system: ACHN renal
LXFL 529 NSCLC = test system: LXFL 529 NSCLC
M14 melanoma = test system: M14 melanoma
RXF-631 renal = test system: RXF-631 renal
TK-10 renal = test system: TK-10 renal
SR leukemia = test system: SR leukemia

CCOC(=O)/C(O)=C1\C(=O)N(C)C(=O)C1c1ccc(OC)c(OC)c1 (stereo not given)
TGI (A498 renal): > 100 µM | TGI (A549 NSCLC): > 100 µM | TGI (CAKI-1 renal): > 100 µM | TGI (CCRF-CEM leukemia): > 100 µM | TGI (COLO 205 colon): > 100 µM | TGI (DLD-1 colon): > 100 µM | TGI (DMS 114 small cell lung): > 100 µM | TGI (DMS 273 small cell lung): > 100 µM | TGI (EKVX NSCLC): > 100 µM | TGI (HCC-2998 colon): > 100 µM | TGI (HCT-116 colon): > 100 µM | TGI (HCT-15 colon): > 100 µM | TGI (HL-60(TB) leukemia): > 100 µM | TGI (HOP-18 NSCLC): > 100 µM | TGI (HOP-62 NSCLC): > 100 µM | TGI (HOP-92 NSCLC): > 100 µM | TGI (HT29 colon): > 100 µM | TGI (IGROV1 ovarian): > 100 µM | TGI (K-562 leukemia): > 100 µM | TGI (KM12 colon): > 100 µM | TGI (KM20L2 colon): > 100 µM | TGI (LOX IMVI melanoma): > 100 µM | TGI (M19-MEL melanoma): > 100 µM | TGI (MALME-3M melanoma): > 100 µM | TGI (MCF7 breast): > 100 µM | TGI (MOLT-4 leukemia): > 100 µM | TGI (NCI-H226 lung): > 100 µM | TGI (NCI-H23 lung): > 100 µM | TGI (NCI-H460 lung): > 100 µM | TGI (NCI-H522 lung): > 100 µM | TGI (NCI/ADR-RES ovarian): > 100 µM | TGI (OVCAR-3 ovarian): > 100 µM | TGI (OVCAR-4 ovarian): > 100 µM | TGI (OVCAR-5 ovarian): > 100 µM | TGI (OVCAR-8 ovarian): > 100 µM | TGI (P388 leukemia): > 100 µM | TGI (P388/ADR leukemia): > 31.6 µM | TGI (RPMI-8226 leukemia): > 100 µM | TGI (RXF 393 renal): > 100 µM | TGI (SF-268 CNS): > 100 µM | TGI (SF-295 CNS): > 100 µM | TGI (SF-539 CNS): > 100 µM | TGI (SK-MEL-2 melanoma): > 100 µM | TGI (SK-MEL-28 melanoma): > 100 µM | TGI (SK-MEL-5 melanoma): > 100 µM | TGI (SK-OV-3 ovarian): > 100 µM | TGI (SN12C renal): > 100 µM | TGI (SN12K1 renal): > 100 µM | TGI (SNB-19 CNS): > 100 µM | TGI (SNB-75 CNS): > 100 µM | TGI (SNB-78 CNS): > 100 µM | TGI (SW-620 colon): > 31.6 µM | TGI (U251 CNS): > 100 µM | TGI (UACC-257 melanoma): > 100 µM | TGI (UACC-62 melanoma): > 100 µM | TGI (UO-31 renal): > 100 µM | TGI (XF 498 CNS): > 100 µM

O=C(c1ccccc1)C(c1ccccc1)C1(O)C(=O)Nc2c(Cl)cc(Cl)cc21 (stereo not given)
TGI (786-0 renal): 29.8 µM | TGI (A549 NSCLC): 41.8 µM | TGI (ACHN renal): 33.1 µM | TGI (CAKI-1 renal): 40.1 µM | TGI (CCRF-CEM leukemia): 49.7 µM | TGI (COLO 205 colon): 33.7 µM | TGI (DLD-1 colon): 37.5 µM | TGI (DMS 114 small cell lung): 33.9 µM | TGI (DMS 273 small cell lung): 83.2 µM | TGI (EKVX NSCLC): 27.8 µM | TGI (HCC-2998 colon): 33.8 µM | TGI (HCT-15 colon): > 100 µM | TGI (HL-60(TB) leukemia): 39.5 µM | TGI (HOP-18 NSCLC): 36.6 µM | TGI (HOP-92 NSCLC): 40 µM | TGI (HT29 colon): 58 µM | TGI (K-562 leukemia): 50.3 µM | TGI (KM12 colon): 82.8 µM | TGI (KM20L2 colon): > 100 µM | TGI (LOX IMVI melanoma): 42.8 µM | TGI (LXFL 529 NSCLC): 25.7 µM | TGI (M14 melanoma): 37.9 µM | TGI (MALME-3M melanoma): 32.7 µM | TGI (MOLT-4 leukemia): 61.9 µM | TGI (NCI-H226 lung): 32.6 µM | TGI (NCI-H23 lung): 35.5 µM | TGI (NCI-H460 lung): > 100 µM | TGI (NCI-H522 lung): 34.1 µM | TGI (OVCAR-3 ovarian): > 100 µM | TGI (OVCAR-4 ovarian): 28 µM | TGI (OVCAR-5 ovarian): 33.2 µM | TGI (OVCAR-8 ovarian): 32.9 µM | TGI (RPMI-8226 leukemia): 38.8 µM | TGI (RXF 393 renal): 34.4 µM | TGI (RXF-631 renal): 38 µM | TGI (SF-268 CNS): 51.9 µM | TGI (SF-295 CNS): 33.1 µM | TGI (SK-MEL-2 melanoma): 33 µM | TGI (SK-MEL-28 melanoma): 34.1 µM | TGI (SK-MEL-5 melanoma): 30.7 µM | TGI (SK-OV-3 ovarian): 70.1 µM | TGI (SN12C renal): > 100 µM | TGI (SNB-19 CNS): 55.3 µM | TGI (SNB-75 CNS): 39.7 µM | TGI (SNB-78 CNS): 67.4 µM | TGI (SW-620 colon): 34.3 µM | TGI (TK-10 renal): 41.2 µM | TGI (U251 CNS): 96.6 µM | TGI (UACC-257 melanoma): 35 µM | TGI (UO-31 renal): 38.4 µM | TGI (XF 498 CNS): > 100 µM

CCOC(=O)C(=O)Nc1nc2c(s1)C(=O)c1ccccc1C2=O
TGI (786-0 renal): 31.2 µM | TGI (A498 renal): 33.2 µM | TGI (A549 NSCLC): 34.4 µM | TGI (ACHN renal): 28.1 µM | TGI (CAKI-1 renal): 33.5 µM | TGI (CCRF-CEM leukemia): 69.8 µM | TGI (COLO 205 colon): 56.4 µM | TGI (DLD-1 colon): 31.8 µM | TGI (DMS 114 small cell lung): 17.6 µM | TGI (DMS 273 small cell lung): 40.6 µM | TGI (EKVX NSCLC): 29.6 µM | TGI (HCC-2998 colon): 31.6 µM | TGI (HCT-116 colon): 27.7 µM | TGI (HCT-15 colon): 29.6 µM | TGI (HOP-62 NSCLC): 33.5 µM | TGI (HOP-92 NSCLC): 25.3 µM | TGI (HT29 colon): 27.4 µM | TGI (IGROV1 ovarian): 37.6 µM | TGI (K-562 leukemia): 33.3 µM | TGI (KM12 colon): 30.6 µM | TGI (KM20L2 colon): 40.7 µM | TGI (LXFL 529 NSCLC): 26.2 µM | TGI (M14 melanoma): 32.7 µM | TGI (M19-MEL melanoma): 7.45 µM | TGI (MALME-3M melanoma): 25.8 µM | TGI (MOLT-4 leukemia): 18.9 µM | TGI (NCI-H226 lung): 34.4 µM | TGI (NCI-H23 lung): 27.6 µM | TGI (NCI-H460 lung): 45.8 µM | TGI (NCI-H522 lung): 29.3 µM | TGI (OVCAR-3 ovarian): 18.6 µM | TGI (OVCAR-4 ovarian): 31.5 µM | TGI (OVCAR-5 ovarian): 42.5 µM | TGI (OVCAR-8 ovarian): 47.5 µM | TGI (RPMI-8226 leukemia): 48.2 µM | TGI (RXF-631 renal): 27.8 µM | TGI (SF-268 CNS): 27.3 µM | TGI (SF-539 CNS): 31.5 µM | TGI (SK-MEL-2 melanoma): 31.7 µM | TGI (SK-MEL-28 melanoma): 27.6 µM | TGI (SK-MEL-5 melanoma): 33.7 µM | TGI (SN12C renal): 30.1 µM | TGI (SNB-19 CNS): 31.9 µM | TGI (SNB-75 CNS): 30.2 µM | TGI (SNB-78 CNS): 24.8 µM | TGI (SR leukemia): 23.4 µM | TGI (SW-620 colon): 27.7 µM | TGI (U251 CNS): 31 µM | TGI (UACC-257 melanoma): 31.4 µM | TGI (UACC-62 melanoma): 34.4 µM | TGI (UO-31 renal): 28 µM | TGI (XF 498 CNS): 26.9 µM
